One assay deals with T1, Fbxo48-V5 (Homo sapiens, UniProt Q5FWF7).
T1 sequence (Q5FWF7 1-155): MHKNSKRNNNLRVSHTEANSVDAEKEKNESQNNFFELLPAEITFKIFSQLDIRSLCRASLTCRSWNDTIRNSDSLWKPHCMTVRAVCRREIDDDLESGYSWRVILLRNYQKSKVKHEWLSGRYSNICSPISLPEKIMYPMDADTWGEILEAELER
Briefly: cellular thermal shift assay. It is filed as cell-based. As to conditions: 3 μM BC1618, 30 min, HEK293/293T cells; Fbxo30-V5 as negative control.

Assay [1] has as its target T2, Purified human Fbxo48 protein (recombinant, HIS-tagged) (human, UniProt Q5FWF7 1-155).
T2 sequence: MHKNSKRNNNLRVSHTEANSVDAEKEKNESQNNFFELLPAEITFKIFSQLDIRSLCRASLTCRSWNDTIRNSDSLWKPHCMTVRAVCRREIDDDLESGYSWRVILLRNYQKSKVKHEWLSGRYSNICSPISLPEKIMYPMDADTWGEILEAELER
Kind of assay: pull-down.

Where no end group is shown, it is not given here. [ ]: non-standard residue; d: D form. The star is where a group is joined. Biotin = O=C1N[C@H]2[C@H](CS[C@H]2CCCCC(=O)*)N1; pT = C[C@@H](OP(=O)(O)O)[C@H](N)C(=O)O

For `OC(COc1ccc(C(F)(F)F)cc1)CN(Cc1ccccc1)Cc1ccccc1` (centres unmarked) [compound 2, BC1618], the “cellular thermal shift assay (CETSA), immunoblot” value at Fbxo48-V5 is listed as “BC1618 directly interacted with Fbxo48 but not Fbxo30 (negative control)”.

With Biotin-DGEFLR[pT]SCGSPN [phospho-Ampkα peptide (Biotin-DGEFLRT(p)SCGSPN)], the binding result in assay [1] is “binds”.

Values taken from article PMC8529588 (Nature chemical biology, 2021).
